Measurements: PMC2063346, “Cyclosporin A as a multidrug-resistant modulator in patients with renal cell carcinoma treated with teniposide” (British Journal of Cancer, 1997)

What was measured:
[1] = VM26 plasma pharmacokinetics alone and with CSA (HPLC, compartmental model); format: in vivo, patients
Description: (§1) British Joumal of Cancer (1997) 75(5), 715-721 ? […] Sixteen patients initially received VM26 alone (200 mg m-2 day-' i.v.). […] For this reason, new approaches are highly recommended after a first-line treatment, usually interleukin 2 based (Yagoda et al, 1995). […] P-gp deter- mines reduced intracellular drug accumulation and/or altered intracellular drug compartmentation, preventing drugs from reaching the intracellular target site (Skovsgaard, 1978, Schuurhuis et al, 1989). […] Received 2 June 1996 Revised 2 October 1996 Accepted 17 October 1996 Correspondence to: M Boiocchi, Division of Experimental Oncology 1, Centro di Riferimento Oncologico, via Pedemontana Occidentale 12, 33081 Aviano (PN), Italy Although many chemosensitizers have been used successfully in vitro in MDR cell lines, their potential therapeutic role in the clinical setting remains an intriguing issue. […] This could determine alteration in the pharmacokinetics and pharmacodynamics of the cytotoxic agents (Lum et al, 1992; Wilson et al, 1995). […] The study was approved by the local ethics committee and informed consent was obtained from all patients. Treatment protocol The patients received the first course of VM26 (Vumon; Bristol Myers, Rome, Italy) at the dosage of 200 mg m-2 day-' i.v. every 3 weeks. The second cycle (same dosage) was administered in the event of response or stable disease, if no toxicity was documented. In the event of grade 4 toxicity the dose was reduced by 25%. […] The patients were clinically evaluated according to the usual phase II trials criteria (WHO), and blood tests were performed weekly. […] To determine the VM26 level, 5-ml blood samples were drawn from peripheral vein and collected in heparinized glass tubes before treatment at 0 h (i.e. immediately before the begin- ning of i.v. infusion of VM26) and at 1,6, 12, 18, 24,24.5,25,26, 28, 32, 36, 48 and 60h. Plasma samples, which were separated after centrifugation at 1000 g for 10 min, were kept frozen at - 20'C until analysis. Urine samples were collected before, during and after VM26 treatment. Each 12-h sample from well-stirred urine was stored and kept frozen at -20?C until analysis. […] These samples were frozen at -70?C until analysis. Drug assays The method used to determine VM26 in plasma samples was that described by Evans et al (1982). Briefly, 1 ml of plasma or urine was extracted with 8 ml of chloroform containing VP16 (100 gl of a 200-,ug ml solution) as internal standard. After 20-min shaking at +4?C, samples were centrifuged at 1500 g for 20 min at +4?C. The organic phase was dried under vacuum and then redissolved with 200 gl of methanol; 50 µl of this solution as injected into an LKB-Pharmacia (Cambridge, UK) high-performance liquid chro- matography (HPLC) system equipped with an absorbance detector set at 254 nm. Separation was achieved using an isocratic solvent system of water-acetonitrile-acetic acid (64:35:1) at a flow of 1 ml min-, using a 300 x 3.9-mm long ,uBondapak phenyl column (Waters, New York, NY, USA). Peak areas were quantitated with an LKB integrator. […] To calculate the concentrations of VM26, the internal standard method was adopted. […] Pharmacokinetic analyses To define the plasma concentration-time function and to estimate pharmacokinetic parameters of VM26 for each patient, a compart- mental model was adopted. Drug infusion and non-saturable elim- ination processes were considered zero-order and first-order processes respectively. Estimates of pharmacokinetic parameters [apparent volume of distribution (V); elimination half-life (t1,2p); systemic clearance (CI); maximum drug concentration (Cmax); and area under curve (AUC)] of VM26 and the numerical validation of the model were obtained by PCNONLIN 4.0, a non-linear regression program.

[2] = Total and renal clearance of VM26 (urine collection, seven patients); format: in vivo
Description: British Joumal of Cancer (1997) 75(5), 715-721 ? […] Sixteen patients initially received VM26 alone (200 mg m-2 day-' i.v.). […] For this reason, new approaches are highly recommended after a first-line treatment, usually interleukin 2 based (Yagoda et al, 1995). […] P-gp deter- mines reduced intracellular drug accumulation and/or altered intracellular drug compartmentation, preventing drugs from reaching the intracellular target site (Skovsgaard, 1978, Schuurhuis et al, 1989). […] Received 2 June 1996 Revised 2 October 1996 Accepted 17 October 1996 Correspondence to: M Boiocchi, Division of Experimental Oncology 1, Centro di Riferimento Oncologico, via Pedemontana Occidentale 12, 33081 Aviano (PN), Italy Although many chemosensitizers have been used successfully in vitro in MDR cell lines, their potential therapeutic role in the clinical setting remains an intriguing issue. […] The patients were clinically evaluated according to the usual phase II trials criteria (WHO), and blood tests were performed weekly. […] The organic phase was dried under vacuum and then redissolved with 200 gl of methanol; 50 µl of this solution as injected into an LKB-Pharmacia (Cambridge, UK) high-performance liquid chro- matography (HPLC) system equipped with an absorbance detector set at 254 nm. […] Peak areas were quantitated with an LKB integrator. […]

[3] = system: metastatic renal cell carcinoma; experiment: Treatment response, phase II (WHO criteria); format: in vivo, patients
Description: as §1

[4] = in vivo
Description: as §1

[5] = VM26 alone, first cycle, 16 patients
[6] = nine patients after two courses of VM26 alone

## COc1cc([C@@H]2c3cc4c(cc3[C@@H](O[C@@H]3O[C@@H]5CO[C@@H](c6cccs6)O[C@H]5[C@H](O)[C@H]3O)[C@H]3COC(=O)[C@H]23)OCO4)cc(OC)c1O [VM26, teniposide]
[1]; [5]
  AUC of VM26, median (range): 290.3 (168.4-791.0) mg l-1 h
  Cl of VM26, median (range): 0.62 (0.25-1.2) l h-1 m-2
  Cmax of VM26, median (range): 10.9 (7.0-22.3) mg l-1
  V of VM26, median (range): 5.5 (4.4-9.0) l m-2
  t1/2 of VM26, median (range): 6.8(2.8-14.8) h
[1]; after CSA versus VM26 alone
  variation in the paired AUC of VM26: 50%
[1]; when CSA was added, P<0.01
  decrease of systemic clearance of VM26: 1.4 fold
[2]; VM26 alone
  fraction of total clearance resulting from renal clearance: < 6%
[2]; VM26 plus CSA versus VM26 alone, seven patients, P<0.05
  Decrease of total Cl of VM26: 21%
[3]; VM26 alone 200 mg m-2 day-1 i.v., sixteen patients
  objective responses: No objective responses
[3]; [6]
  progressive disease, patients: six
  stable disease, patients: three
[3]; patient 1, 2 cycles
  Response (VM26): SD (stable disease)
[3]; patient 2, 2 cycles
  Response (VM26): PD (progressive disease)
[3]; patient 3, 2 cycles
  Response (VM26): PD (progressive disease)
[3]; patient 4, 2 cycles
  Response (VM26): PD (progressive disease)
[3]; patient 5, 2 cycles
  Response (VM26): SD (stable disease)
[3]; patient 6, 2 cycles
  Response (VM26): SD (stable disease)
[3]; patient 7, 2 cycles
  Response (VM26): PD (progressive disease)
[3]; patient 8, 2 cycles
  Response (VM26): PD (progressive disease)
[3]; patient 9, 2 cycles
  Response (VM26): PD (progressive disease)
[4]
  ANC/AUC ratio (nadir ANC standardized for AUC of VM26): 7.38 ± 5.51
  bilirubin (in the normal range): < 1.5 mg 100 ml-1
  cutaneous eruption, patients: one patient
  cycles with significant vomiting, mucositis or constipation: < 15 % of cycles
  grade 3 neutropenia, patients: three
  hair loss, patients: all patients
  nadir neutrophil count (ANC), median: 1900 µL⁻¹
  nadir neutrophil count (ANC), range: 200 to 6000 µL⁻¹
